The text below walks through data of patent US20250325688A1, “ANTIBODY-DRUG CONJUGATE CONTAINING PROTEIN DEGRADATION AGENT BIOACTIVE COMPOUND, METHOD FOR PREPARING SAME, AND USE THEREOF” (Medilink Therapeutics (Suzhou) Co., Ltd., priority 2022, published 2025).

In data set [1] the test system is IKZF1/3. Particulars: clinical results shown at AACR April 2022; cited from earlier work.
The subject of data set [2] is NUGC4 cells. Description: Inhibitory activity of payloads on cell proliferation (Cell titer glo). It counts as cell-based. Particulars: for EC50: 4 days culture. The method, then:
(§1) The cells were incubated in an incubator at 37° C. overnight. The payload to be tested was dissolved in DMSO, and the resulting solution was aliquoted and cryopreserved at −80° C. The next day, the payload to be tested was subjected to 4-fold dilution to a maximum concentration of 10000 nM for 10 points using the respective complete medium. 100 µL of the diluted drug was added to the cell culture wells (2 replicates per well). After the cells were cultured at 37° C. for 4 days, 50 μL of Cell titer glo substrate was added to each well. After the cells were incubated for 5 min, the fluorescence values were measured.

Data set [3] concerns N87 cells. The description is as above. The format is cell-based. As to conditions: for EC50: 4 days culture. The method, then:
as §1

Data set [4] has as its system MCF7 cells. Described as above. Particulars: for EC50: 4 days culture. The format is cell-based. The method, then:
as §1

For data set [5], the target named is monkey B7H3-4IgG-his (monkey). The data set can be described thus: ELISA, coated monkey B7H3-4IgG-his, anti-human Fc-HRP detection.
The target in data set [6] is monkey B7H3-4IgG-his (monkey). The data set is described as above. The source holds these as a separate data set.
The target of data set [7] is T1, B7H3 on tumor cells (MCF-7, A549, PC-3) (human) (UniProt Q5ZPR3).
T1 sequence (looked up): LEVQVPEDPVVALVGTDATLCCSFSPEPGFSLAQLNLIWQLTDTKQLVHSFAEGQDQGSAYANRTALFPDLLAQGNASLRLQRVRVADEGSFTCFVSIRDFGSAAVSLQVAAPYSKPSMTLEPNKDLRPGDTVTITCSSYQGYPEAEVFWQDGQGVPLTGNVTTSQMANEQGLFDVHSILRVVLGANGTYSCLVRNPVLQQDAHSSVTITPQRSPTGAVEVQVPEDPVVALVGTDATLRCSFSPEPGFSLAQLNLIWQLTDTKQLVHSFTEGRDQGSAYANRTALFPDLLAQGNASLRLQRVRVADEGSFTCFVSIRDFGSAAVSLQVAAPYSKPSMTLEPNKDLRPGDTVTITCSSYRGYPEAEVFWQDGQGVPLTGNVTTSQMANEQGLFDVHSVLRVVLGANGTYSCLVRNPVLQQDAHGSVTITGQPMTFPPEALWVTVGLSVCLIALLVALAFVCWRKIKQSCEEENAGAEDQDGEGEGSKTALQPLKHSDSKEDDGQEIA
The data set can be described thus: flow cytometry on PC-3 tumor cells.

Data set [8] deals with T1, B7H3 on tumor cells (MCF-7, A549, PC-3) (human). Description: flow cytometry on A549 tumor cells.
For data set [9], the target named is T2, human B7H3-4IgG-his (human) (UniProt Q5ZPR3).
T2 sequence: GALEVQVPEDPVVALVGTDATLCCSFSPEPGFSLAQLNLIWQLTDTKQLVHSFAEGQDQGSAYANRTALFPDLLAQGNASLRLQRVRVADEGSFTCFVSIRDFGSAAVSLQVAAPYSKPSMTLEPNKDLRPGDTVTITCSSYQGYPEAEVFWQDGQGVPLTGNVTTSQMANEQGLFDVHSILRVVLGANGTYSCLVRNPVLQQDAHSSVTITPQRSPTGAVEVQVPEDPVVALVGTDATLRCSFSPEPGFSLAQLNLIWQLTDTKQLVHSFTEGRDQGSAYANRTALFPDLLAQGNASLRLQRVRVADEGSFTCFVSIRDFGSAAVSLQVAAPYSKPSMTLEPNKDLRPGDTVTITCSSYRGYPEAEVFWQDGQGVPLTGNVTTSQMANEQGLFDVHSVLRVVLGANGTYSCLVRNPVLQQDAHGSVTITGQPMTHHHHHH
The data set can be described thus: ELISA, coated human B7H3-4IgG-his, anti-human Fc-HRP detection.

Data set [10] deals with T1, B7H3 on tumor cells (MCF-7, A549, PC-3) (human). The data set can be described thus: flow cytometry on MCF-7 tumor cells.
Data set [11] shares this target. Description: flow cytometry on A549 tumor cells. The source holds these as a separate data set.
Data set [12] has the same target. Description: flow cytometry on MCF-7 tumor cells. The source holds these as a separate data set.
For data set [13], the target named is T2, human B7H3-4IgG-his (human). Description: ELISA, coated human B7H3-4IgG-his, anti-human Fc-HRP detection. The source holds these as a separate data set.

Read-outs that look alike come from different tables or passages of the source.

As to `O=C1CC[C@H](N2C(=O)c3cccc4c(Cc5ccc(CN6CCOCC6)cc5)ccc2c34)C(=O)N1` [CFT7455], in [1], the “dose-limiting toxicity in the clinic” value is “decreased neutrophil was dose-limiting”.
In the case of `CNCCOCCc1ccc(NC(=O)NCc2ccc3c(c2)CN(C2CCC(=O)NC2=O)C3=O)cc1Cl` (stereo not drawn) [Control compound 1], the EC50 in [2] (Homo sapiens, NUGC-4, 96 h) turned out to be 345 nM; in [3] (96 h), 572 nM; in [4] (Homo sapiens, MCF7, 96 h), 983 nM.
Regarding `CN(CCCc1ccc(NC(=O)NCc2ccc3c(c2)CN(C2CCC(=O)NC2=O)C3=O)cc1Cl)C(=O)CO` (stereo not drawn) [PL-1, N-(3-(2-chloro-4-(3-((2-(2,6-dioxopiperidin-3-yl)-1-oxoisoindolin-5-yl)methyl)ureido)phenyl)propyl)-2-hydroxy-N-methylacetamide], in data set [3], the “inhibitory activity on the proliferation of N87 cells (in words)” value is reported as “significantly superior to that of control compound 1”. For the same molecule, the EC50 is 14.3 nM in data set [3] (96 h) and 62.1 nM in data set [4] (Homo sapiens, MCF7, 96 h). Also, in data set [4], the “inhibitory activity on the proliferation of MCF7 cells (in words)” value is “significantly superior to that of control compound 1”.
In turn, `CN(CCCc1ccc(C(F)(F)C(=O)NCc2ccc3c(c2)CN(C2CCC(=O)NC2=O)C3=O)cc1Cl)C(=O)CO` (stereo not drawn) [PL-2] came in with an EC50 in data set [3] (96 h) of 193 nM.
Take `CN(CCCc1ccc(NC(=O)NCc2ccc3c(c2)C(=O)N(C2CCC(=O)NC2=O)C3=O)cc1Cl)C(=O)CO` (stereo not drawn) [PL-3, N-(3-(2-chloro-4-(3-((2-(2,6-dioxopiperidin-3-yl)-1,3-dioxoisoindol-5-yl)methyl)ureido)phenyl)propyl)-2-hydroxy-N-methylacetamide]: the concentration giving a half-maximal response (EC50) in [3] (96 h) amounted to 851 nM.
For `CN(CCOCCc1ccc(NC(=O)NCc2ccc3c(c2)CN(C2CCC(=O)NC2=O)C3=O)cc1Cl)C(=O)CO` (stereo not drawn) [PL-4, N-(2-chloro-4-(3-(2-(2,6-dioxopiperidin-3-yl)-1-oxoisoindolin-5-methyl)ureido)phenethoxy)ethyl-2-hydroxy-N-methylacetamide], in data set [2], the “inhibitory activity on the proliferation of NUGC4 cells (in words)” value is recorded as “significantly superior to that of control compound 1” and the EC50 was 43.2 nM. In addition, in data set [3], the “inhibitory activity on the proliferation of N87 cells (in words)” value is recorded as “significantly superior to that of control compound 1” and the EC50 was determined as 36.1 nM. Further, in [4], the “inhibitory activity on the proliferation of MCF7 cells (in words)” value is “significantly superior to that of control compound 1” and the EC50 came to 44.7 nM.
In the case of `CN(CCCc1ccc(NC(=O)NCc2ccc3c(c2)CN(C2CCC(=O)NC2=O)C3=O)cc1)C(=O)CO` (stereo not drawn) [PL-5, N-(3-(4-(3-(2-(2,6-dioxopiperidin-3-yl)-1-oxoisoindolin-5-methyl)ureido)phenyl)propyl)-2-hydroxy-N-methylacetamide], the EC50 in [2] (Homo sapiens, NUGC-4, 96 h) worked out at 502 nM; in [3] (96 h), 1590 nM; in data set [4] (Homo sapiens, MCF7, 96 h), 228 nM.

B1: B7H3-C1 antibody (antibody, INN chains, looked up, V domains shown)
VH: QVQLVQSGAEVKKPGSSVKVSCKASGYTFTNYVMHWVRQAPGQGLEWMGYINPYNDDVKYNEKFKGRVTITADESTSTAYMELSSLRSEDTAVYYCARWGYYGSPLYYFDYWGQGTLVTVSS
VL: EIVLTQSPATLSLSPGERATLSCRASSRLIYMHWYQQKPGQAPRPLIYATSNLASGIPARFSGSGSGTDFTLTISSLEPEDFAVYYCQQWNSNPPTFGQGTKVEIK
As to B1, the EC50 in [5] stood at 0.167 nM; in [6] it was 3.92 nM; in [7], 0.618 nM; in data set [8] it was 1.05 nM; in [9], 0.048 nM; in data set [10] it was 1.36 nM. Also, the EC50 turned out to be 1.86 nM in [11], 1.71 nM in [12] and 0.0519 nM in data set [13]. Further, the Maximum MFI in data set [7] is 6440; in data set [8] it was 48000; in [10] it was 63200; in data set [11], 8270; in [12], 84000.
